Assay results published in PMC6440634, “Phosphorylation of a serine/proline-rich motif in oxysterol binding protein-related protein 4L (ORP4L) regulates cholesterol and vimentin binding” (PLoS ONE, 2019).
Numbering of substitutions follows the chain as printed.

What was measured:
Experiment in all cases: specific radioligand binding in solution, Scatchard
[1] = molecular target: T1, ORP4L (Homo sapiens, UniProt Q969R2, S762D/S763D/S766D/S768D)
T1 construct: gene OSBP2; about 116 kDa on SDS-PAGE, dimer by cross-linking; residues S762SPSSPSS769 in ORD
T1 sequence (Q969R2 1-916 S762D/S763D/S766D/S768D): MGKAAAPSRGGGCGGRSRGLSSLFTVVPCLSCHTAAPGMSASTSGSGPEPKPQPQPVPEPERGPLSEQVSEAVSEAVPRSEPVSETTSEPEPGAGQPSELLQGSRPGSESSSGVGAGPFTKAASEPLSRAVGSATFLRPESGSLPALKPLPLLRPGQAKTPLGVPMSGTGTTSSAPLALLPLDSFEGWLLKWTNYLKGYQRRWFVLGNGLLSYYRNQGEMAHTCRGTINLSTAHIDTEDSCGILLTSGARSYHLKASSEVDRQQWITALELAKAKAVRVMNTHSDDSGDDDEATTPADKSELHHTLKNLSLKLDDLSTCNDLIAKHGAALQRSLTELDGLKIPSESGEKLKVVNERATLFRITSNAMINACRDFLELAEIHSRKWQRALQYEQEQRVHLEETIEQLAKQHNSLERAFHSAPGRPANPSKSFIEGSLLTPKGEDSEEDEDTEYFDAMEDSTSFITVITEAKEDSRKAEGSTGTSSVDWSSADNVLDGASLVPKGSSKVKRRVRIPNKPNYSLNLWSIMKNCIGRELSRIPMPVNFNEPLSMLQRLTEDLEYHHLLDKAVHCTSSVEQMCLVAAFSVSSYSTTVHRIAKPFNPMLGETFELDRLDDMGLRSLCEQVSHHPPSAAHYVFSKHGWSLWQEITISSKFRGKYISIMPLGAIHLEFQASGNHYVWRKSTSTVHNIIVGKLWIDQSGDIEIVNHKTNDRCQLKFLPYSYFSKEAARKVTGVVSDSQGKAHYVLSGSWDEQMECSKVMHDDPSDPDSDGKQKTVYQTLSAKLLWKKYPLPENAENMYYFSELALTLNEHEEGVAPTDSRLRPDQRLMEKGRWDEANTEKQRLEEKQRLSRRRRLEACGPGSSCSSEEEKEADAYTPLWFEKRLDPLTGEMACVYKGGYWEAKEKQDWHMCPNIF

[2] = molecular target: T2, ORP4L (Homo sapiens, UniProt Q969R2)
T2 construct: gene OSBP2; about 116 kDa on SDS-PAGE, dimer by cross-linking; residues S762SPSSPSS769 in ORD
T2 sequence (Q969R2 1-916): T1 sequence (Q969R2 1-916 S762D/S763D/S766D/S768D) with D762S, D763S, D766S, D768S

[3] = molecular target: T3, ORP4L (Homo sapiens, UniProt Q969R2, S762A/S763A/S766A/S768A)
T3 construct: gene OSBP2; about 116 kDa on SDS-PAGE, dimer by cross-linking; residues S762SPSSPSS769 in ORD
T3 sequence (Q969R2 1-916 S762A/S763A/S766A/S768A): T1 sequence (Q969R2 1-916 S762D/S763D/S766D/S768D) with D762A, D763A, D766A, D768A

| Kd [1] | Kd [2] | Kd [3] | Structure (SMILES) |
| --- | --- | --- | --- |
| 60 ± 18 nM | 45 ± 12 nM | 62 ± 28 nM | C[C@H](CCCC(C)(C)O)[C@H]1CC[C@H]2[C@@H]3CC=C4C[C@@H](O)CC[C@]4(C)[C@H]3CC[C@]12C [25OH] |
| 144 ± 43 nM | 160 ± 40 nM | 255 ± 90 nM | CC(C)CCC[C@@H](C)[C@H]1CC[C@H]2[C@@H]3CC=C4C[C@@H](O)CC[C@]4(C)[C@H]3CC[C@]12C [cholesterol] |
